# Laboratory results reported in US5753679A, “Benzyl-piperidine derivatives” (priority 1995, dated 1998).
# Molecular target: T1, dopamine D4 receptor (Homo sapiens, UniProt P21917)
# T1 construct: expressed in transfected cells; host or cells: CHO (Chinese Hamster Ovary) cells, D4-CHO, crude membranes
# T1 sequence (P21917 1-419): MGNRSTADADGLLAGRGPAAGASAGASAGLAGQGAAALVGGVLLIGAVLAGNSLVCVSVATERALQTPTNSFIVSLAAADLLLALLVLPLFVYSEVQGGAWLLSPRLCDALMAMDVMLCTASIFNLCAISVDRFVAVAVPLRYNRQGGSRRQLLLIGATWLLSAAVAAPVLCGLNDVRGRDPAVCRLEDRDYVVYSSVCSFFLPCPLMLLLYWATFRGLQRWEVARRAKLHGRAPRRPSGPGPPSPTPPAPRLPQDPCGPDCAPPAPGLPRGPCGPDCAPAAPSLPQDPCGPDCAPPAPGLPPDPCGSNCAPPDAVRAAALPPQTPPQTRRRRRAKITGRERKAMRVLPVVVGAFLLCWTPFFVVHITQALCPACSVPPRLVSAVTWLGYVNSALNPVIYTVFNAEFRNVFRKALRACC
# Assay: Binding to the D4 receptor, [3H]-spiperone displacement, D4-CHO membranes
# Details: not given
# Description: The compounds were characterized by a comparison in binding behaviour to the D4 receptor and to the D2 receptor. CHO cells (Chinese Hamster Ovary) were used in the test. Crude membranes were isolated from D4 --CHO and D2 --CHO cells by ultracentrifugation and were stored at -80° C. After thawing and homogenization in a buffer solution (50 mM Tris, 1 mM EDTA, 5 mM KCI, 1.5 mM CaCI2, 4 mM MgCI2, pH 7.4) they were incubated at room temperature for 90 minutes with 200 pM [^3 H]-spiperone and increasing concentrations (1×10^-11 M to 1×10^-4 M) of the test compound. A non-specific binding by the incubation was established in the presence of 1×10^-5 M (+)-butaclamol.
# The unbound radioligand was removed by filtration through a GFIC glass filter and the bound radioactivity was determined by flash emission in a Packard Top Count.
# It was determined using ^3 H-spiperone. The calculation of the value was effected with a ligand.
row,SMILES,Ki [nM]
1,"Nc1ccccc1C(=O)OC1CCN(Cc2ccccc2)CC1 [A/5a, 1-Benzyl-piperidin-4-yl 2-amino-benzoate]",4

# Same assay, conditions: [3H]-spiperone 200 pM, D4-CHO crude membranes, room temperature, 90 minutes, pH 7.4; read-out: Ki at D4
row,SMILES,Ki [nM]
1,"Nc1ccc(C(=O)OC2CCN(Cc3ccccc3)CC2)nc1 [B/8b, 1-benzyl-piperidin-4-yl 5-amino-picolinate]",16.4
2,"O=C(OC1CCN(Cc2ccccc2)CC1)c1ccc(Br)cc1 [C/19b, 1-Benzyl-piperidin-4-yl 4-bromo-benzoate]",10
3,"O=C(OC1CCN(Cc2ccccc2)CC1)c1ccc(I)cc1 [D/22a, 1-Benzyl-piperidin-4-yl 4-iodo-benzoate]",15
4,"Cc1ccccc1C(=O)OC1CCN(Cc2ccccc2)CC1 [E/24a, 1-Benzyl-piperidin-4-yl 2-methyl-benzoate]",6
5,"Cc1ccc(C(=O)OC2CCN(Cc3ccccc3)CC2)cc1 [F/25a, 1-Benzyl-piperidin-4-yl 4-methyl-benzoate]",8
6,"CNc1ccc(C(=O)OC2CCN(Cc3ccccc3)CC2)cc1 [G/32b, 1-Benzyl-piperidin-4-yl 4-methylamino-benzoate]",5
7,"O=C(OC1CCN(Cc2ccc(Cl)cc2)CC1)c1ccccc1 [H/58c, 1-(4-Chloro-benzyl)-piperidin-4-yl benzoate]",7.3
8,"Cc1ccc(C(=O)OC2CCN(Cc3ccc(Cl)cc3)CC2)cc1 [I/59a, 1-(4-Chloro-benzyl)-piperidin-4-yl 4-methyl-benzoate]",15
9,"O=C(OC1CCN(Cc2ccc(Cl)cc2)CC1)c1ccc(Cl)cc1 [J/82a, 1-(4-Chloro-benzyl)-piperidin-4-yl 4-chloro-benzoate]",18
10,"Cc1ccc(CN2CCC(OC(=O)c3ccc(C)cc3)CC2)cc1 [L/79a, 1-(4-Methyl-benzyl)-piperidin-4-yl 4-methyl-benzoate]",5.2
11,"O=C(OC1CCN(Cc2cccc([N+](=O)[O-])c2)CC1)c1ccccc1 [M/70b, 1-(3-Nitro-benzyl)-piperidin-4-yl benzoate]",13
12,"Cc1ccc(C(=O)OC2CCN(Cc3ccccc3)CC2)c(C)c1 [N/46a, 1-benzyl-piperidin-4-yl 2,4-dimethyl-benzoate]",9
13,"O=C(OC1CCN(Cc2ccc(F)cc2)CC1)c1ccccc1 [O/64b, 1-(4-Fluoro-benzyl)-piperidin-4-yl benzoate]",18
14,"Cc1ccc(C(=O)OC2CCN(Cc3cccc([N+](=O)[O-])c3)CC2)cc1 [P/71a, 1-(3-Nitro-benzyl)-piperidin-4-yl 4-methyl-benzoate]",19
15,"Cc1ccc(C(=O)OC2CCN(Cc3cccc(N)c3)CC2)cc1 [Q/73a, 1-(3-Amino-benzyl)-piperidin-4-yl 4-methyl-benzoate]",19
16,"Cc1ccc(C(=O)OC2CCN(Cc3ccccc3N)CC2)cc1 [R/69a, 1-(2-Amino-benzyl)-piperidin-4-yl 4-methyl-benzoate]",17.5
17,"COc1ccc(CN2CCC(OC(=O)c3ccccc3)CC2)cc1 [S/80c, 1-(4-Methoxy-benzyl)-piperidin-4-yl benzoate]",15
18,"Cc1ccc(CN2CCC(OC(=O)c3ccccc3)CC2)cc1 [k/78b, 1-(4-Methyl-benzyl)-piperidin-4-yl benzoate]",3.8
